Assay results published in patent US20240285737A1, “IMPROVED METHODS OF TREATMENT USING IMMUNOGENIC PEPTIDES” (IMCYSE SA, priority 2021, published 2024).

System: proinsulin epitope C20-A1-specific CD4+ T cells
Assay: FACS quantification of CD4+ T cells responding to proinsulin epitope C20-A1 stimulation in PBMCs of T1D patients treated with IMP or placebo
Assay type: in vivo, human
Details: visits 3 to 6 (impact of administrations 3 to 6)
Protocol: 84 HLA DR4+ adult participants are randomly assigned (1:1:1) to one of the three treatment arms: placebo, investigational medicinal product (IMP) 450 μg and IMP 1350 μg (=the main study). All participants receive 6 administrations of IMP or placebo with a 2-week interval between each administration. At 24 weeks participants receive a boost injection. While treated participants receive a boost administration equivalent to the dose they have been randomized to, placebo participants receive a placebo boost. The participants were followed up to 48 weeks (FIG. 1).
Treatment consists of six administrations (separated by 14 days) of the IMP or the placebo by SC route. […]
Patient blood samples collected at six time points (visit V-1 or the baseline which was prior to immunization, and visits V2 to V6 which were two weeks after 2, 3, 4, 5 or 6 injections respectively) was used to quantify CD4+ T cells responding to proinsulin epitope C20-A1 stimulation. […]
Fluorescent activated cell sorting (FACS) analysis was performed to quantify CD4+ T cells that respond to proinsulin epitope stimulation. […] In a proinsulin epitope C20-A1-stimulated sample, the “net % of responding CD4+ T cells” was calculated as the % of CD4+ T cells with an effector or regulatory phenotype in the stimulated sample minus the % of CD4+ T cells with effector or regulatory phenotype in the corresponding unstimulated sample. […]

HCPYCSLQPLALEGSLQKRG [IMP] was tested, and the “net % of responding CD4+ T cells in IMP treated as compared to Placebo treated patients at individual time points” value was “trend of greater net % of responding CD4+ T cells”.
